Measurements as given in patent US20160120882A1, “COMPOSITION HAVING A BENEFICIAL EFFECT ON THE CARDIOVASCULAR SYSTEM” (ESSENTIAL IP BV, priority 2013, published 2016).
Where “and” joins values, the source holds several entries; their conditions need not be identical. Equal entries are not always repeated. Structures can show the parent of a compound that is named as a salt. Where two headings read alike, the source gives them in different places.

Assays:
[1] = clinical studies; cited from earlier work
[2] = target: T1, CYP1A1 (Homo sapiens, UniProt P04798); conditions: in vitro; cited from earlier work
T1 sequence (P04798 1-512): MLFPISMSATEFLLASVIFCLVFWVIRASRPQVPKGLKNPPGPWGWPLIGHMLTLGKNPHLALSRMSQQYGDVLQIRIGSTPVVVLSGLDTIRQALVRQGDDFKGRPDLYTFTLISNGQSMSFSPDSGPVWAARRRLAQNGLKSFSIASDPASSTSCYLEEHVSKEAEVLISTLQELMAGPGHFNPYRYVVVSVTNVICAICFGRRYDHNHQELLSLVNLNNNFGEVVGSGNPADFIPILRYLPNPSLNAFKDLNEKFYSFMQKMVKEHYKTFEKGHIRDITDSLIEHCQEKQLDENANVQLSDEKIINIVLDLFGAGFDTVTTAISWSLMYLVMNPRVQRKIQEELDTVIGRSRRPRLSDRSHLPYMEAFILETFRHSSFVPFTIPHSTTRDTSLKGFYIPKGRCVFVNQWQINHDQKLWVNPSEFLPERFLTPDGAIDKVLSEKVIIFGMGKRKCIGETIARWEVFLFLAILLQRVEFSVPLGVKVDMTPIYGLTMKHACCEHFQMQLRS

[3] = cyclosporine 3 mg/kg twice daily; berberine 0.2 g three times a day for three months; cited from earlier work
[4] = cited from earlier work
[5] = subjects with high blood pressure; cited from earlier work
[6] = calculated from the NOAEL in rats; cited from earlier work
[7] = various clinical trial data; cited from earlier work
[8] = cited from earlier work; remark: listed apart in the source
[9] = tested on: human monocytic THP-1 cells; test: uptake of fluorescently labeled oxLDL by PMA-stimulated THP-1 macrophages (foam cell formation model), FACS; type: cell-based; conditions: for effect on the uptake of oxLDL: PMA-stimulated THP-1 cells, FIG. 1; for oxLDL uptake, Average: average of 6 independent measurements; for oxLDL uptake, Average / oxLDL uptake [Median Fluorescence intensity]: VitD3 100 nM, lycopene 0.5 uM, monacolin K 10 uM, control average 12617; for oxLDL uptake [Median Fluorescence intensity]: single measurement (1-6), 24 h pre-treatment, then 10 ug/ml Dil-oxLDL 24 h
Excerpt: We employed a model for measuring the oxLDL uptake by macrophages, a known and accepted model for determining foam cell formation, which in turn is an accepted measure for plaque formation as well as for the development of atherosclerosis and decreasing vascular health in general. Our experimental data are therefore relevant for determining the beneficial effects of several active ingredients on the cardiovascular system.
More in detail, we stimulated human monocytic THP-1 cells [Tsuchiya S, Yamabe M, Yamaguchi Y, Kobayashi Y, Konno T, Tada K (August 1980). “Establishment and characterization of a human acute monocytic leukemia cell line (THP-1)”. Int. J. Cancer 26 (2): 171-6. doi:10.1002/ijc.2910260208.] with phorbol 12-myristate 13-acetate (PMA) and contacted or pre-treated the cells with a number of active ingredients. After 24 hours of pre-treatment, the cells were contacted with or exposed to fluorescently labeled oxLDL and uptake of oxLDL was determined after 24 hours (see example 1).
THP-1 cells (P7) were plated in a 96-wells suspension culture plate at a density of 1*10̂6 cells/ml whereby 1*10̂5 cells were plated. Cells were cultured in IMDM phenol-red free medium (Invitrogen, Eugene, Oreg., USA) enriched for 10% fetal calf serum (FCS), 100 U/ml penicillin, 100 μg/ml streptomycin and 2 mM L-glutamin. Monocytes were differentiated with 50 ng/ml phorbol 12-myristate 13-acetate (PMA) (Sigma Aldrich, St. Louis, Mo. USA) for 48 h where after medium was replaced. After differentiation, macrophages were cultured in the presence or absence of different compounds for 24h (Table 2). After pre-treatment, cells were exposed to 10 ug/ml Dil-labeled oxidized lipoprotein (oxLDL) (Biotrend Chemikalien GmbH, Cologne, Germany) for another 24h at 37° C. to enable foam cell formation in the absence of presence of the different compounds (FIG. 1). After this, cells were washed with PBS (−/−) (PAA, Pitscataway, N.J., USA) and detached by Lidocaine hydrochloride (4 mg/ml) EDTA (10 mM) solution (Sigma Aldrich, St. Louis, Mo. USA)/(Invitrogen, Eugene, Oreg., USA). Cells were washed two more times with FACS buffer (PBS containing 0.5% BSA and 0.2 mM EDTA) and transferred to a 96 U-shaped plate for FACS analysis. Analysis was performed on the FACS Canto II HTS and 1,1′-dioctadecyl-3,3,3′3′-tetra-methylindocyanide percholorate (Dip-labeled oxLDL uptake was measured in PE-A channel.
Macrophages were exposed to vitamin D3, lycopene and/or monacolin K and the inhibitory effect of oxLDL uptake of these three active ingredients was measured. The inhibitory potentiol of each compound and composition was expressed as the difference between the measurements obtained with and without the compound or composition.

[10] = lycopene from all sources (EFSA, 2008); cited from earlier work
[11] = lycopene group versus 30% in control group; cited from earlier work
[12] = cited from earlier work; remark: listed apart in the source
[13] = daily intake of Red Yeast Rice containing 10 mg monacolin K; cited from earlier work
[14] = rat, in vivo; cited from earlier work
[15] = mouse, in vivo; cited from earlier work
[16] = per increase in dietary intake of vitamin K2 by 10 microgram; 8 years, 480 cardiovascular events; cited from earlier work
[17] = high versus low dietary intake of vitamin K2; cited from earlier work
[18] = subgroup of trials using lycopene dosages of >=25 mg daily

SMILES: COc1ccc2cc3[n+](cc2c1OC)CCc1cc2c(cc1-3)OCO2 [Berberine]
- reduction of total cholesterol [1]: 15-18%
- effect on CYP1A1 [2]: inhibit CYP1A1
- increase of mean cyclosporine A Area under the Curve (AUC) [3]: 34.5%
- reduction of fasting plasma insulin ([4]; P<0.001): 28.1%
- reduction of insulin resistance index ([4]; P<0.001): 44.7%
- HBA1c after treatment ([4]; decreased from 8.1%): 7.3%

SMILES: COC1=C(OC)C(=O)C(C/C=C(\C)CC/C=C(\C)CC/C=C(\C)CC/C=C(\C)CC/C=C(\C)CC/C=C(\C)CC/C=C(\C)CC/C=C(\C)CC/C=C(\C)CCC=C(C)C)=C(C)C1=O [CoQ10, Coenzyme Q10]
- mean decrease in diastolic blood pressure [5]: 7-10 mmHg
- mean decrease in systolic blood pressure [5]: 11-17 mmHg
- acceptable daily intake (ADI) [6]: 12 mg/kg/day
- observed safety level (OSL) [7]: 1200 mg/day/person

SMILES: CC(C)=CCC/C(C)=C/C=C/C(C)=C/C=C/C(C)=C/C=C/C=C(C)/C=C/C=C(C)/C=C/C=C(\C)CCC=C(C)C [Lycopene]
- Systolic blood pressure lowering ([8]; Table 1 summary range): 5.6-9.5 mmHg
- systolic blood pressure reducing effect ([8]; meta-analysis of 4 studies): 5.60 mmHg
- systolic blood pressure reduction ([8]; subgroup of trials with high blood pressure at baseline (SBP >=140 mm Hg)): 9.35 mmHg
- effect on the uptake of oxLDL [9]: slightly inhibited
- oxLDL uptake, Average [9]: 11405 Median Fluorescence intensity
- oxLDL uptake [Median Fluorescence intensity] [9]: 9832 Median Fluorescence intensity and 11500 Median Fluorescence intensity and 12200 Median Fluorescence intensity and 11900 Median Fluorescence intensity and 11300 Median Fluorescence intensity and 11700 Median Fluorescence intensity
- acceptable daily intake (ADI) [10]: 0.5 mg/kg/day
- incidence of prostate cancer [11]: 10%
- HDL levels ([12]; meta-analysis of 12 studies): remained unchanged
- LDL cholesterol lowering [12, 18]: LDL cholesterol lowering of 10%
- total serum cholesterol lowering [12, 18]: 10%
- LDL cholesterol lowering ([12]; subgroup of trials using lycopene dosages of >=25 mg daily, listed as lycopene): 10%

SMILES: CC[C@H](C)C(=O)O[C@H]1C[C@@H](C)C=C2C=C[C@H](C)[C@H](CC[C@@H]3C[C@@H](O)CC(=O)O3)[C@H]21 [Monacolin K]
- LDL cholesterol lowering [13]: LDL cholesterol lowering of 7-25%
- lowering of triglyceride blood levels [13]: by 10-44%
- relative increase of HDL [13]: Relative increase of HDL up to 17%
- effect on the uptake of oxLDL [9]: no effect
- oxLDL uptake, Average [9]: 12667 Median Fluorescence intensity
- oxLDL uptake [Median Fluorescence intensity] [9]: 14300 Median Fluorescence intensity and 11900 Median Fluorescence intensity and 11700 Median Fluorescence intensity and 11800 Median Fluorescence intensity and 14400 Median Fluorescence intensity

SMILES: C=C1CC[C@H](O)C/C1=C/C=C1\CCC[C@]2(C)[C@@H]([C@H](C)CCCC(C)C)CC[C@@H]12 [VitD3, Vitamin D3]
- effect on the uptake of oxLDL [9]: no effect
- oxLDL uptake, Average [9]: 12300 Median Fluorescence intensity
- oxLDL uptake [Median Fluorescence intensity] [9]: 13100 Median Fluorescence intensity and 13200 Median Fluorescence intensity and 12600 Median Fluorescence intensity and 10900 Median Fluorescence intensity

SMILES: COc1ccc2cc3[n+](cc2c1OC)CCc1cc2c(cc1-3)OCO2 [berberine HCL]
- LD50 [14]: > 15000 mg/kg
- LD50 [15]: > 29586 mg/kg

SMILES: CC(C)=CCC/C(C)=C/CC/C(C)=C/CC/C(C)=C/CC1=C(C)C(=O)c2ccccc2C1=O [vitamin K2, Vitamin K2]
- risk reduction [16]: 9%
- less calcification of the aorta [17]: 52%
- less myocardial infarctions [17]: 57%
- less overall mortality [17]: 26%
